Results from patent publication US9381210B2 (Wisconsin Alumni Research Foundation, priority 2013, dated 2016).

Legend:
[1] = tested on: OLFM4; experiment: OLFM4 expression by QPCR in CML iCD34+ cells; assay type: cell-based, human; conditions: CML iCD34+ cells treated with imatinib
Method: iPSCs-derived lin^−CD34^+CD45^+ cells and somatic CML bone marrow lin^−CD34^+ were transfected with 100 nM of either siOLFM4 or scrambled (AllStars Neg. siRNA AF 488) using HiPerfect transfection reagent according to the manufacturer's protocol (all from Qiagen). The transfection efficiency was 50-60% as evaluated by using control ALLStars Neg. siRNA AF488. As determined by QPCR performed 24 hours after transfection, the silencing efficiency was 70-75% (FIG. 9D).
RNA was isolated from the cell subpopulations using PureLink RNA mini kit (Life Technologies). cDNA synthesis was carried out using Advantage RT-for-PCR kit (Clontech). Quantitative real-time PCR analysis was performed using Gand PlatinumSYBR Green qPCR SuperMix-UDG kit (Life Technologies) and self-designed specific primers for BCR-ABL (forward […] (SEQ ID NO:1); reverse […] (SEQ ID NO:2)), OLFM4 (forward […] (SEQ ID NO:3); reverse […] (SEQ ID NO:4)) and GAPDH (forward […] (SEQ ID NO:5); reverse […] (SEQ ID NO:6)).
The reactions were run on a Mastercyclerep Realplex™ thermal cycler (Eppendorf) and expression levels were calculated by minimal cycle threshold values (Ct) normalized to the reference expression of GAPDH in each sample (Pfaffl, 2001). When specified, K562 was used as a reference. All QPCR products were analyzed on 1.2% agarose gels to confirm the specificity of detection.

[2] = tested on: CML sCD34+ cells; experiment: Hematopoietic colony-forming assay; assay type: cell-based, human
Source text: CD43^+ hematopoietic cells were collected from differentiated iPSC cultures using MACS and labeled with CD235a/CD41a FITC, CD45 APC and CD38 PE (BD Pharmingen). Lin^−CD45^+CD38^+ and lin^−CD45^+CD38^− subpopulations were obtained by fluorescence-activated cell sorter (FACSAria) (Vodyanik et al., 2006). Bone marrow mononuclear cells from CML patients in the chronic phase were purchased commercially (AllCells or Applied StemCells), or obtained from the patients at the University of Wisconsin Hospital and Clinics (Madison, Wis.) with approval from the University of Wisconsin Institutional Review Board. Donors had previously signed an Institutional Review Board-approved consent. Bone marrow cells from healthy donors were obtained from Cincinnati Children's Hospital Medical Center (CCHMC). Mononuclear cells were labeled with the lineage-specific markers CD2, CD3, CD14, CD15, CD16, CD19, CD20, CD24, CD41a, CD56, CD66b, and Glycophorin A (FITC-conjugated antibodies), CD34 APC (BD Pharmingen) and DAPI to exclude dead cells. Live lin^−CD34^+ cells were isolated using FACSAria (BD).
Hematopoietic clonogenic assays were performed using serum-containing StemMACS semisolid clonogenic medium (Miltenyi Biotec, CA). Colonies were scored after fourteen to 21 days of incubation.

[3] = tested on: CML sCD34+ cells; experiment: Long-term culture initiating cell assay (LTC-IC); assay type: cell-based, human; conditions: imatinib
Method: Sorted iPSC-derived lin^−CD34^+CD45^+ cells were plated in a six-well plate at 10^4 cells/well containing 5-7 day-old cultures of murine 1×10^5 M2-10B4 and OP9 stromal cells (1:1 ratio mix) in LTC-IC medium consisting of SFM supplemented with 10 μM hydrocortisone, 50 ng/ml SCF, 5 ng/ml IL3, and 50 ng/ml IL6. Cultures were maintained at 37° C. in a humidified atmosphere with 5% CO2, and fed at weekly intervals. After five weeks, cells were harvested and analyzed for CFC potential as described above. LTC-IC assay for somatic lin^−CD34^+CD45^+ cells was performed using M2-10B4 cells exactly as described in the Stem Cell Technologies protocol to be found online at stemcell.com/en/Technical-Resources/db5a9/28412_Itc_ic-H.aspx.

[4] = tested on: CML iCD34+ cells; experiment: Adhesion assay to fibronectin; assay type: cell-based, human; conditions: 5 μM imatinib, 24 hours
[5] = tested on: iCML CD34+ cells; conditions: CFSE cultures, 5 μM imatinib, four days, annexin V
Method: Differentiated cells were labeled with 1 μM carboxy-fluorescein diacetate succinimidyl diester (CFSE; Molecular Probes, Eugene, Oreg.) as previously described (Copland et al., 2006; Holtz et al., 2002). These cells were then incubated overnight in CSSM medium supplemented with growth factors to allow excess unbound dye to leak out of the cells. Cells cultured in the presence of 10 μg/ml mitomycin C (Sigma Aldrich) were used to establish the CFSEmax (undivided cell population). The next day, CFSE^bright cells were sorted by FACArias to exclude non-labeled and CFSE^dim populations. […] At the end of the culture period, cells were stained with CD34-APC and 7AAD for flow cytometry analysis. The percentage of cells in each generation was determined using FlowJo software (Tree Star, Ashland, Oreg.), with the position of the parent generation set on the basis of the fluorescence profile of undivided cells.

[6] = tested on: sCD34+ cells; experiment: Cell proliferation assay; assay type: cell-based, human; conditions: serum-free cultures without cytokines, OLFM4 300 ng/ml
Method: Total lin^−CD34^+, lin^−CD34^+CD38^− or lin^−CD34^+CD38^+ were plated in triplicate in 96-well plate at 10^3 cells/well. […] When specified, the 300 ng/ml OLFM4 (Acro Biosystem) or the following growth factors were added: 10 ng/ml IL3, 100 ng/ml SCF, 100 ng/ml Flt3L, 100 ng/ml IL6 and 200 ng/ml GM-CSF. Viable cell yields were determined by counting trypan blue excluding viable cells using a hemocytometer.

[7] = tested on: lin-CD34+ cells from CML bone marrow; experiment: Xenograft of siRNA-treated CML lin-CD34+ cells; assay type: in vivo, Nod scid gamma (NSG) mice; conditions: four mice, 16 weeks; two out of four control siRNA animals engrafted
Method: Sorted lin^−CD34^+ cells from CML bone marrow were transduced with either AllStars Negative control or OLFM4 siRNA for 24 hours. Cells were then washed and transplanted into Nod scid gamma (NSG) mice at 5-10×10^3 cells. Four mice were injected with cells treated with control siRNA and four mice were injected with OLFM4 siRNA. The mice were then analyzed at 16 weeks using flow cytometry for live human CD45^+ cells in bone marrow, liver, spleen, and peripheral blood.
The cultured cells were labeled with human CD45, mouse CD45 and DAPI and sorted for live human CD45^+ mouse CD45^− cells. The sorted cells were then plated in methyl cellulose media for hematopoietic progenitor assay and RNA extracted for PCR.

[8] = tested on: OLFM4; experiment: OLFM4 expression by RT-PCR/QPCR in sCD34+ cells; assay type: cell-based, human; conditions: sCD34+ cells treated with G-CSF (10 ng/ml, 24 hours)

For `Cc1ccc(NC(=O)c2ccc(CN3CCN(C)CC3)cc2)cc1Nc1nccc(-c2cccnc2)n1` [imatinib, 4-[(4-methylpiperazin-1-yl)methyl]-N-(4-methyl-3-{[4-(pyridin-3-yl)pyrimidin-2-yl]amino}phenyl)benzamide], the “OLFM4 expression (QPCR)” value [1] was “augmentation of OLFM4 expression”, the “response of parental bone marrow cells to imatinib (myeloid CFC potential)” value ([2]; parental lin-CD34+ BM cells of the CML patient, 5 μM imatinib, 24 hours pretreatment) was “sensitivity” and the LTC-ICs [3] was “little effect”. For the same molecule, the adhesion to fibronectin [4] was “partially restored”, the “apoptosis in more mature iCD34dim and iCD34- cells” value [5] was “substantial increase in apoptosis” and the “apoptosis in most primitive iCD34bright cells” value [5] was “resistant to imatinib-induced apoptosis”.

For “OLFM4: OLFM4 protein (Acro Biosystem) added to medium at 300 ng/ml; secreted glycoprotein”, the “proliferation of sCD34+ cells” value [6] was “potentiates expansion”, the “proliferation of sCD34+ cells” value ([6]; listed as OLFM4 protein) was “enhanced proliferation” and the “animals showing engraftment (live human CD45+ cells)” value [7] was “none”. For the same molecule, the “reversal of the knockdown effect on CFCs by OLFM4 pretreatment” value ([2]; CML sCD34+ cells, OLFM4 protein 300 ng/ml) was “can be reversed”.

B1: G-CSF: cytokine used at 10 ng/ml to induce OLFM4 expression in sCD34+ cells (protein, UniProt P09919 31-207, looked up)
Granulocyte …: TPLGPASSLPQSFLLKCLEQVRKIQGDGAALQEKLVSECATYKLCHPEELVLLGHSLGIPWAPLSSCPSQALQLAGCLSQLHSGLFLYQGLLQALEGISPELGPTLDTLQLDVADFATTIWQQMEELGMAPALQPTQGAMPAFASAFQRRAGGVLVASHLQSFLEVSYRVLRHLAQP
For B1, the OLFM4 expression [8] was “rapidly induced”.
